Assay results as given in patent US20260297080A1, “BICYCLIC COMPOUNDS AS CDK INHIBITORS” (BeOne Medicines I GmbH, priority 2022, published 2026).

Key:
[1] = molecular target: CDK2/Cyclin E1 (Homo sapiens, UniProt P24941); assay: CDK2/Cyclin E1 Biochemical Assay (TR-FRET), 0.060 mM ATP; conditions: 0.15 μM Rb (Ser780)-biotin substrate, pH7.0, 60 min preincubation, 120 min reaction, room temperature
In short: (§1)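 TR-FRET assay with 0.15 μM Rb (Ser780)-biotin substrate and 0-10 μM compound in 50 mM HEPES pH7.0, 50 mM MgCl2, 1 mM DTT. ATP was 0.060 mM for CDK2/Cyclin E1 and 0.015 mM for CDK1/Cyclin B1. Kinase was preincubated with compound 60 min, reacted 120 min at room temperature, and IC50 was fitted (four-parameter) from the 665/620 nm ratio.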

[2] = molecular target: CDK1/Cyclin B1 (Homo sapiens, UniProt P06493); assay: CDK1/Cyclin B1 Biochemical Assay (TR-FRET), 0.015 mM ATP; conditions: 0.15 μM Rb (Ser780)-biotin substrate, pH7.0, 60 min preincubation, 120 min reaction, room temperature
In short: as §1

CDK1/Cyclin B1, sequence (P06493 whole entry): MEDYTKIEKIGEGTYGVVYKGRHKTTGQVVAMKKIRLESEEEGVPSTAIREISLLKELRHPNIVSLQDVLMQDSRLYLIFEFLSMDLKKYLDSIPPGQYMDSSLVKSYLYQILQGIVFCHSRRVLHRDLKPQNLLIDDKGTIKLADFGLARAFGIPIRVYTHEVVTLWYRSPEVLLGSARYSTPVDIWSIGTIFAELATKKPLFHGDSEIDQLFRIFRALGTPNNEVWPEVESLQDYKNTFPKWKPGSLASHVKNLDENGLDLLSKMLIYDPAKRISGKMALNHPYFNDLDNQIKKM
CDK1/Cyclin B1, sequence (P14635 whole entry partner): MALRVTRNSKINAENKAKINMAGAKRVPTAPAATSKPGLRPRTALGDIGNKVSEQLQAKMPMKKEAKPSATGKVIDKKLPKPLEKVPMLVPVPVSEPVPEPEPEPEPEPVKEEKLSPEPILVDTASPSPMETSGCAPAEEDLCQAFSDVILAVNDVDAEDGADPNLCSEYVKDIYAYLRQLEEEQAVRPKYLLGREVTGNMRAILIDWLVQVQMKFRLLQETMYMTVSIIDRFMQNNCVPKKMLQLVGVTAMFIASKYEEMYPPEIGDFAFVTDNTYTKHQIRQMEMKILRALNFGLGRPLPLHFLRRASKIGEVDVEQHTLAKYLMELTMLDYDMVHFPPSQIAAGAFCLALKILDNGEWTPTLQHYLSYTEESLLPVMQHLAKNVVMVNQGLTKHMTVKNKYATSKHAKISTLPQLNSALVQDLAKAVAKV

Structure (SMILES) | IC50 [1] [nM] | IC50 [2] [nM]
CC(C)NC(=O)O[C@H]1CC[C@@H](c2cc(Nc3ccc4c(c3)CS(=O)(=O)N4C(C)C3CCOC3)n[nH]2)C1 (relative stereo) [Example 218, cis-3-(3-((2,2-dioxido-1-(1-(tetrahydrofuran-3-yl)ethyl)-1,3-dihydrobenzo[c]isothiazol-5-yl)amino)-1H-pyrazol-5-yl)cyclopentyl isopropylcarbamate] | 112 | 999
CC[C@H](C)NC(=O)O[C@H]1CC[C@@H](c2cc(Nc3ccc4c(c3)CS(=O)(=O)N4C)n[nH]2)C1 (relative stereo) [Example 222, cis-3-(3-((1-methyl-2,2-dioxido-1,3-dihydrobenzo[c]isothiazol-5-yl)amino)-1H-pyrazol-5-yl)cyclopentyl((S)-sec-butyl)carbamate] | 5 | 48
COCC(C)NC(=O)O[C@H]1CC[C@@H](c2cc(Nc3ccc4c(c3)CS(=O)(=O)N4C)n[nH]2)C1 (relative stereo) [Example 226, cis-3-(3-((1-methyl-2,2-dioxido-1,3-dihydrobenzo[c]isothiazol-5-yl)amino)-1H-pyrazol-5-yl)cyclopentyl(1-methoxypropan-2-yl)carbamate] | 2 | 77
CC(CC(F)(F)F)NC(=O)O[C@H]1CC[C@@H](c2cc(Nc3ccc4c(c3)CS(=O)(=O)N4C)n[nH]2)C1 (relative stereo) [Example 229, cis-3-(3-((1-methyl-2,2-dioxido-1,3-dihydrobenzo[c]isothiazol-5-yl)amino)-1H-pyrazol-5-yl)cyclopentyl(4,4,4-trifluorobutan-2-yl)carbamate] | 6.4 | 30
CN1c2ccc(Nc3cc([C@@H]4CC[C@H](OC(=O)NCCC(F)(F)F)C4)[nH]n3)cc2CS1(=O)=O (relative stereo) [Example 230, cis-3-(3-((1-methyl-2,2-dioxido-1,3-dihydrobenzo[c]isothiazol-5-yl)amino)-1H-pyrazol-5-yl)cyclopentyl(3,3,3-trifluoropropyl)carbamate] | 9.8 | 78
CC1(NC(=O)O[C@H]2CC[C@@H](c3cc(Nc4ccc5c(c4)CS(=O)(=O)N5)n[nH]3)C2)CC1 (relative stereo) [Example 232, cis-3-(3-((2,2-dioxido-1,3-dihydrobenzo[c]isothiazol-5-yl)amino)-1H-pyrazol-5-yl)cyclopentyl(1-methylcyclopropyl)carbamate] | 12 | 27
CN1c2ccc(Nc3cc([C@@H]4CC[C@H](OC(=O)NCC(C)(C)O)C4)[nH]n3)cc2CS1(=O)=O (relative stereo) [Example 238, cis-3-(3-((1-methyl-2,2-dioxido-1,3-dihydrobenzo[c]isothiazol-5-yl)amino)-1H-pyrazol-5-yl)cyclopentyl(2-hydroxy-2-methylpropyl)carbamate] | 16 | 153

The remaining lines, values ahead:

IC50 [1] [nM] | IC50 [2] [nM] | Structure (SMILES)
8.6 | 49 | CCCNC(=O)O[C@H]1CC[C@@H](c2cc(Nc3ccc4c(c3)CS(=O)(=O)N4C)n[nH]2)C1 (relative stereo) [Example 221, cis-3-(3-((1-methyl-2,2-dioxido-1,3-dihydrobenzo[c]isothiazol-5-yl)amino)-1H-pyrazol-5-yl)cyclopentyl propylcarbamate]
5.5 | 35 | CN1c2ccc(Nc3cc([C@@H]4CC[C@H](OC(=O)NC5(C)CC5)C4)[nH]n3)cc2CS1(=O)=O (relative stereo) [Example 223, cis-3-(3-((1-methyl-2,2-dioxido-1,3-dihydrobenzo[c]isothiazol-5-yl)amino)-1H-pyrazol-5-yl)cyclopentyl(1-methylcyclopropyl)carbamate]
29 | 2580 | CN1c2ccc(Nc3cc([C@@H]4CC[C@H](OC(=O)NC5CC6(CCC6)C5)C4)[nH]n3)cc2CS1(=O)=O (relative stereo) [Example 224, cis-3-(3-((1-methyl-2,2-dioxido-1,3-dihydrobenzo[c]isothiazol-5-yl)amino)-1H-pyrazol-5-yl)cyclopentyl spiro[3.3]heptan-2-ylcarbamate]
87 | 789 | CNC(=O)O[C@H]1CC[C@@H](c2cc(Nc3ccc4c(c3)CS(=O)(=O)N4C)n[nH]2)C1 (relative stereo) [Example 225, cis-3-(3-((1-methyl-2,2-dioxido-1,3-dihydrobenzo[c]isothiazol-5-yl)amino)-1H-pyrazol-5-yl)cyclopentyl methylcarbamate]
9.4 | 123 | COCC1(NC(=O)O[C@H]2CC[C@@H](c3cc(Nc4ccc5c(c4)CS(=O)(=O)N5C)n[nH]3)C2)CC1 (relative stereo) [Example 228, cis-3-(3-((1-methyl-2,2-dioxido-1,3-dihydrobenzo[c]isothiazol-5-yl)amino)-1H-pyrazol-5-yl)cyclopentyl(1-(methoxymethyl)cyclopropyl)carbamate]
1.5 | 13 | CN1c2ccc(Nc3cc([C@@H]4CC[C@H](OC(=O)NC56CC(C5)C6)C4)[nH]n3)cc2CS1(=O)=O (relative stereo) [Example 231, cis-3-(3-((1-methyl-2,2-dioxido-1,3-dihydrobenzo[c]isothiazol-5-yl)amino)-1H-pyrazol-5-yl)cyclopentyl bicyclo[1.1.1]pentan-1-ylcarbamate]
1.3 | 10 | CN1c2ccc(Nc3cc([C@@H]4CC[C@H](OC(=O)NC5(C)CCC5)C4)[nH]n3)cc2CS1(=O)=O (relative stereo) [Example 233, cis-3-(3-((1-methyl-2,2-dioxido-1,3-dihydrobenzo[c]isothiazol-5-yl)amino)-1H-pyrazol-5-yl)cyclopentyl(1-methylcyclobutyl)carbamate]
4.2 | 67 | CN1c2ccc(Nc3cc([C@@H]4CC[C@H](OC(=O)NC5(C)COC5)C4)[nH]n3)cc2CS1(=O)=O (relative stereo) [Example 234, cis-3-(3-((1-methyl-2,2-dioxido-1,3-dihydrobenzo[c]isothiazol-5-yl)amino)-1H-pyrazol-5-yl)cyclopentyl(3-methyloxetan-3-yl)carbamate]
12 | 232 | CC(NC(=O)O[C@H]1CC[C@@H](c2cc(Nc3ccc4c(c3)CS(=O)(=O)N4C)n[nH]2)C1)C1COC1 (relative stereo) [Example 235, cis-3-(3-((1-methyl-2,2-dioxido-1,3-dihydrobenzo[c]isothiazol-5-yl)amino)-1H-pyrazol-5-yl)cyclopentyl(1-(oxetan-3-yl)ethyl)carbamate]
47 | 320 | CN1c2ccc(Nc3cc([C@@H]4CC[C@H](OC(=O)NC5COC5)C4)[nH]n3)cc2CS1(=O)=O (relative stereo) [Example 236, cis-3-(3-((1-methyl-2,2-dioxido-1,3-dihydrobenzo[c]isothiazol-5-yl)amino)-1H-pyrazol-5-yl)cyclopentyl oxetan-3-ylcarbamate]
46 | 435 | CN1c2ccc(Nc3cc([C@@H]4CC[C@H](OC(=O)NCC5COC5)C4)[nH]n3)cc2CS1(=O)=O (relative stereo) [Example 237, cis-3-(3-((1-methyl-2,2-dioxido-1,3-dihydrobenzo[c]isothiazol-5-yl)amino)-1H-pyrazol-5-yl)cyclopentyl(oxetan-3-ylmethyl)carbamate]
